Assay results as given in patent publication US10030016B2 (Sunesis Pharmaceuticals, Inc., priority 2009, dated 2018).
Counter-ions that a name gives are not always drawn. Like-named read-outs stand apart in the source and are kept apart here.

Key:
[1] = system: phospho-akt (Thr308) in PC-3 cells; assay: Inhibition of phospho-akt (Thr308) in PC-3 cells, MSD phospho-akt 308 ELISA kit; type: cell-based; settings: Homo sapiens, 2 hours, no serum, read-out: EC50
Method in brief: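 PC-3 cells (15,000/well, overnight in 10% FBS medium) treated 2 h with three-fold diluted compounds in serum-free medium; DMSO high and 5 μM wortmannin low controls. Lysates captured on BSA-blocked MSD plates overnight at 4 °C, then 1 h antibody detection at RT; phospho-Akt Thr308 read by MSD electrochemiluminescence.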

[2] = target: PDK1 (Homo sapiens (Human), UniProt O15530); assay: PDK1 kinase assay (coupled PDK1/AKT/FAM-crosstide assay, IMAP fluorescence polarization); type: biochemical
Sequence of PDK1 (O15530 51-359): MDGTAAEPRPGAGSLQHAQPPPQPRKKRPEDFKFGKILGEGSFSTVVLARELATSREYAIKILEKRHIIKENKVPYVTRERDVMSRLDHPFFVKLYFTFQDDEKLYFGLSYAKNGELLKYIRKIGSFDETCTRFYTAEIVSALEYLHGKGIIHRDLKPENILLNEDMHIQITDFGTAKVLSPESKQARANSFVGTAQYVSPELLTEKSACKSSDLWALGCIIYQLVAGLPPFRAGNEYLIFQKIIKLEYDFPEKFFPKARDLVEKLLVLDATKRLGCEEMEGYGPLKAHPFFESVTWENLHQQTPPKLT
Method in brief: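 PDK1 activity is measured indirectly through activation of a PIFtide-fused AKT2 construct that phosphorylates FAM-crosstide (100 nM). The reaction uses 0.75 nM PDK1, 40 μM ATP, 30 min, 25° C, with IMAP polarization detection.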

[3] = inhibition of P308 Akt in PC-3 cells, MSD
[4] = inhibition of phospo-PDK1 in vitro
[5] = inhibition of P308 Akt in PC-3 cells using MSD

| SMILES | EC50 [1, 3] | IC50 [2, 4] | EC50 [1, 5] | IC50 ([2]; inhibition of PDK1 in vitro) | EC50 ([1]; PC-3, 2 h, inhibition of P308 Akt in PC-3 cells, MSD) |
| --- | --- | --- | --- | --- | --- |
| Nc1ncnc2ccc(-c3ccc(CNc4ncccc4C(=O)NCc4ccc(F)cc4F)s3)cc12 [Example 3.8, 2-({[5-(4-aminoquinazolin-6-yl)thiophen-2-yl]methyl}amino)-N-(2,4-difluorobenzyl)pyridine-3-carboxamide (TFA salt)] | 1000 to 10000 nM | < 100 nM |  |  |  |
| Nc1ncnc2ccc(-c3ccc(CNc4ncccc4C(=O)NCc4cncnc4)s3)cc12 [Example 3.57, 2-({[5-(4-aminoquinazolin-6-yl)thiophen-2-yl]methyl}amino)-N-(pyrimidin-5-ylmethyl) pyridine-3-carboxamide (TFA salt)] | 1000 to 10000 nM | 1000 to 5000 nM |  |  |  |
| CC(C)Oc1cc(CNc2ncccc2C(=O)N(C)c2cccc(F)c2)cc(-c2c[nH]c3ncc(C(=O)NC4CC4)cc23)c1 [Example 4.1.8, N-cyclopropyl-3-{3-[({3-[(3-fluorophenyl)(methyl)carbamoyl]pyridin-2-yl}amino)methyl]-5-(propan-2-yloxy)phenyl}-1H-pyrrolo[2,3-b] pyridine-5-carboxamide] | 1000 to 10000 nM | > 5000 nM |  |  |  |
| Nc1ncnc2ccc(-c3ccc(CNc4nccc5ncn(Cc6ccc(F)c(F)c6)c(=O)c45)s3)cc12 [Ex. 7.8] | < 1000 nM | < 100 nM |  |  |  |
| C[C@H](NC(=O)c1cc(C#N)cnc1NCc1ccc(-c2ccc(NCCN3CCOCC3)nc2)cc1)c1ccc(F)cc1 [Example 223, 5-Cyano-N-[(S)-1-(4-fluoro-phenyl)-ethyl]-2-{4-[6-(2-morpholin-4-yl-ethylamino)-pyridin-3-yl]-benzylamino}-nicotinamide] |  |  | > 10000 nM | > 5000 nM |  |
| Nc1ccc(-c2ccc(CNc3ncccc3C(=O)NCc3cncc(F)c3)cc2)cn1 [Example 373, 2-(4-(6-aminopyridin-3-yl)benzylamino)-N-((5-fluoropyridin-3-yl)methyl)nicotinamide] |  |  | 1000 to 10000 nM | 1000 to 5000 nM |  |
| C/C=C/c1cnc(NCc2ccc(-c3ccc4ncnc(N)c4c3)s2)c(C(=O)NCc2ccc(F)c(F)c2)n1 [Ex. 10.6, 3-({[5-(4-aminoquinazolin-6-yl)thiophen-2-yl]methyl}amino)-N-(3,4-difluorobenzyl)-6-[(1E)-prop-1-en-1-yl] pyrazine-2-carboxamide] |  | 100 to 1000 nM |  |  | 1000 to 10000 nM |
| C[C@H](NC(=O)c1nc(C#N)cnc1NCc1ccc(-c2cnc3[nH]c(=O)[nH]c3c2)cc1)c1ccc(F)c(F)c1 [Example 363, (S)-6-cyano-N-(1-(3,4-difluorophenyl)ethyl)-3-(4-(2-oxo-2,3-dihydro-1H-imidazo[4,5-b]pyridin-6-yl)benzylamino)-pyrazine-2-carboxamide] |  |  | < 1000 nM | < 100 nM |  |
| N#Cc1cnc(NCc2ccc(-c3cnc4[nH]c(=O)[nH]c4c3)cc2)c(C(=O)NCc2ccc(F)cc2)n1 [Example 365, 6-cyano-N-(4-fluorobenzyl)-3-(4-(2-oxo-2,3-dihydro-1H-imidazo[4,5-b]pyridin-6-yl)benzylamino)pyrazine-2-carboxamide] |  |  | < 1000 nM | < 100 nM |  |
| Nc1n[nH]c2ncc(-c3ccc(CNc4ncc(C(F)(F)F)nc4C(=O)Nc4ccc(F)cc4)cc3)cc12 [Example 39, 3-(4-(3-amino-1H-pyrazolo[3,4-b]pyridin-5-yl)benzylamino)-N-(4-fluorophenyl)-6-(trifluoromethyl)pyrazine-2-carboxamide] | < 1000 nM | < 100 nM |  |  |  |
| C[C@H](NC(=O)c1cc(C#N)cnc1NCc1ccc(-c2ccnc(C#N)c2)cc1)c1ccc(F)cc1 [Example 108, (S)-5-cyano-2-(4-(2-cyanopyridin-4-yl)benzylamino)-N-(1-(4-fluorophenyl)ethyl)nicotinamide] |  |  | > 10000 nM | > 5000 nM |  |
| CC(C)Oc1cc(CNc2ncccc2C(=O)NCc2ccc(F)c(F)c2)cc(-c2c[nH]c3ncc(-c4ccn[nH]4)cc23)c1 [Example 53, 2-(3-(5-(1H-pyrazol-5-yl)-1H-pyrrolo[2,3-b]pyridin-3-yl)-5-isopropoxybenzylamino)-N-(3,4-difluorobenzyl)nicotinamide] |  |  | 1000 to 10000 nM | < 100 nM |  |
| Nc1n[nH]c2ncc(-c3ccc(CNc4ncc(C(F)(F)F)cc4-c4nc5cc(F)ccc5o4)cc3)cc12 [Example 348, 5-(4-((3-(5-fluorobenzo[d]oxazol-2-yl)-5-(trifluoro-methyl)pyridin-2-ylamino)methyl)phenyl)-1H-pyrazolo [3,4-b]pyridin-3-amine] |  |  | > 10000 nM | > 5000 nM |  |
| N#Cc1cnc(NCc2ccc(-c3cnc4[nH]c(=O)[nH]c4c3)cc2)c(C(=O)NCc2ccc(F)c(F)c2)n1 [Example 364, 6-cyano-N-(3,4-difluorobenzyl)-3-(4-(2-oxo-2,3-dihydro-1H-imidazo[4,5-b]pyridin-6-yl)benzylamino)pyrazine-2-carboxamide] |  |  | < 1000 nM | < 100 nM |  |
| C[C@H](NC(=O)c1nc(C#N)cnc1NCc1ccc(-c2cnc(N)c(-c3cccc(N)c3)n2)cc1)c1ccc(F)c(F)c1 [Example 238, 3-{4-[5-Amino-6-(3-amino-phenyl)-pyrazin-2-yl]-benzylamino}-6-cyano-pyrazine-2-carboxylic acid [(S)-1-(3,4-difluoro-phenyl)-ethyl]-amide] |  |  | < 1000 nM | < 100 nM |  |
| Nc1n[nH]c2ncc(-c3ccc(CNc4ncc(C(F)(F)F)cc4C(=O)Nc4ccccn4)cc3)cc12 [Example 274] |  |  | 1000 to 10000 nM | < 100 nM |  |
| C[C@H](NC(=O)c1nccnc1NCc1ccc(-c2cnc3[nH]ncc3c2)cc1)c1ccc(F)cc1 [Example 391, 3-[4-(1H-Pyrazolo[3,4-b]pyridin-5-yl)-benzylamino]-pyrazine-2-carboxylic acid [(S)-1-(4-fluoro-phenyl)-ethyl]-amide] |  |  | 1000 to 10000 nM | < 100 nM |  |
| NC(=O)c1cnc(NCc2ccc(-c3ccc4ncnc(N)c4c3)s2)c(C(=O)NCc2ccc(F)c(F)c2)c1 [Ex. 7.24.1, 2-({[5-(4-aminoquinazolin-6-yl)thiophen-2-yl]methyl}amino)-N˜3˜-(3,4-difluorobenzyl)pyridine-3,5-dicarboxamide] | < 1000 nM | < 100 nM |  |  |  |
| N#Cc1ccc(NC(=O)c2cc(C(F)(F)F)cnc2NCc2ccc(-c3cnc4[nH]nc(N)c4c3)cc2)cc1 [Example 300, 2-(4-(3-amino-1H-pyrazolo [3,4-b]pyridin-5-yl)benzylamino)-N-(4-cyanophenyl)-5-(trifluoromethyl)nicotinamide] |  |  | < 1000 nM | < 100 nM |  |
| Cc1nc2cc(-c3ccc(CNc4ncc(C#N)cc4C(=O)N[C@@H](C)c4ccc(F)cc4)cc3)cnc2[nH]1 [Example 138, (S)-5-cyano-N-(1-(4-fluorophenyl)ethyl)-2-(4-(2-methyl-3H-imidazo[4,5-b]pyridin-6-yl)benzylamino) nicotinamide] |  |  | < 1000 nM | < 100 nM |  |
| C[C@H](NC(=O)c1cc(C#N)cnc1NCc1ccc(-c2cnc(N)c(CO)c2)cc1)c1ccc(F)cc1 [Example 136, (S)-2-(4-(6-amino-5-(hydroxymethyl)pyridin-3-yl)benzylamino)-5-cyano-N-(1-(4-fluorophenyl)ethyl)nicotinamide] |  |  | 1000 to 10000 nM | < 100 nM |  |
| Nc1ncnc2ccc(-c3ccc(CNc4nccc(C(F)(F)F)c4C(=O)NCc4ccc(F)c(F)c4)s3)cc12 [Example 8.12.4, 2-({[5-(4-aminoquinazolin-6-yl)thiophen-2-yl]methyl}amino)-N-(3,4-difluorobenzyl)-4-(trifluoromethyl)pyridine-3-carboxamide] | 1000 to 10000 nM | > 5000 nM |  |  |  |
| Nc1n[nH]c2ncc(-c3ccc(CNc4ncc(C(F)(F)F)cc4C(=O)NC4CCOC4)cc3)cc12 (centres unmarked) [Example 305, 2-(4-(3-amino-1H-pyrazolo [3,4-b]pyridin-5-yl)benzylamino)-N-(tetrahydrofuran-3-yl)-5-(trifluoromethyl)nicotinamide] |  |  | 1000 to 10000 nM | 100 to 1000 nM |  |
| CNC(=O)c1cc(S(=O)(=O)NCc2ccccc2)cnc1NCc1ccc(-c2ccc3ncnc(N)c3c2)s1 [Example 8.6.15, 2-(((5-(4-aminoquinazolin-6-yl)thiophen-2-yl)methyl)amino)-5-(N-benzylsulfamoyl)-N-methylnicotinamide] | > 10000 nM | < 100 nM |  |  |  |
| Nc1ccc(-c2ccc(CNc3ncccc3C(=O)Nc3ccc(F)cc3)cc2)cn1 [Example 375, 2-(4-(6-aminopyridin-3-yl)benzylamino)-N-(4-fluorophenyl)nicotinamide] |  |  | 1000 to 10000 nM | 1000 to 5000 nM |  |
| C[C@H](NC(=O)c1cc(C#N)cnc1NCc1ccc(-c2cnc(N)c(C(N)=O)n2)cc1)c1ccc(F)cc1 [Example 217, (S)-3-amino-6-(4-((5-cyano-3-(1-(4-fluorophenyl)ethylcarbamoyl)pyridin-2-ylamino)methyl)phenyl) pyrazine-2-carboxamide] |  |  | < 1000 nM | < 100 nM |  |
| Nc1ncnc2ccc(-c3ccc(CNc4ncccc4C(=O)Nc4ccc(F)cc4)s3)cc12 [Example 3.47, 2-({[5-(4-aminoquinazolin-6-yl)thiophen-2-yl]methyl}amino)-N-(4-fluorophenyl)pyridine-3-carboxamide (TFA salt)] | < 1000 nM | 100 to 1000 nM |  |  |  |
| C[C@H](NC(=O)c1cccnc1NCc1ccc(-c2ccc3ncnc(N4CCC4)c3c2)s1)c1ccc(F)c(F)c1 [Example 387, 2-{[5-(4-Azetidin-1-yl-quinazolin-6-yl)-thiophen-2-ylmethyl]-amino}-N-[(S)-1-(3,4-difluoro-phenyl)-ethyl]-nicotinamide] |  |  | 1000 to 10000 nM | < 100 nM |  |
